Test results reported in article PMC4917254 (PLoS ONE, 2016).
Values joined by “and” are separate entries in the source; they are usually repeats but may differ in a detail not shown here. Equal entries are not always repeated. Structures can show the parent of a compound that is named as a salt. Where two headings read alike, the source gives them in different places.

What was measured:
α1β2γ2L GABAARs = target: T1, α1β2γ2L GABAARs (Homo sapiens, UniProt P14867+P18507+P47870); assay: Two-electrode voltage clamp, recombinant α1β2γ2L GABAARs in Xenopus oocytes; type: cell-based; details: for nH ± SEM: Hill slope of GABA curve, α1β2γ2L
T1 construct: expressed in transfected cells; host or cells: Xenopus laevis oocytes injected with mRNA (1:1:3)
Procedure: (§1) The expression and functional characterisation of recombinant GABAARs in Xenopus oocytes were performed as previously described. The subunit mRNA ratios for the expression of αβγ receptors were adjusted according to the β subunit isoform in that when β2-containing receptors were expressed, a 1:1:3 ratio was used, whereas when β1- or β3-containing receptors were expressed, a 10:1:10 ratio was used to minimise the expression of homomeric β1/3 homomeric receptors. To express α4β2δ receptors, a 5:1:5 ratio was used, and the pharmacological characteristics of this receptor were as described in Hartiadi et al. (2016). The injection ratio used for the expression of α1β2 and β2γ2L receptors were 1:1 and 1:3 respectively. Approximately 2 to 10 ng of mRNA mixture was injected into each oocyte. Injected oocytes were stored in ND96 storage solution supplemented with 50 μg/mL gentamycin and tetracycline at 18°C.
(§2) Two-electrode voltage clamp recordings were performed on oocytes 2–5 days post-injection at room temperature (20–25°C) using a GeneClamp 500B amplifier (ADInstruments, Sydney, NSW, Australia) or a Warner OC-725C Oocyte Clamp (Warner Instrument Corp, Hamden, CT, USA). All experiments were conducted at a holding potential of –60 mV, and data were acquired with a PowerLab 2/25, and LabChart (version 5.0.2) software (ADInstruments, Sydney, NSW, Australia). The recording microelectrodes (0.2–1.1 MΩ) were generated from capillary glass (Harvard Apparatus, Holliston, MA, USA) using a single-stage glass microelectrode puller (Narishige, Tokyo, Japan), and were filled with 3 M KCl solution.
(§3) Perfusates containing these chemicals were made up fresh before each application. […] All experiments were performed using at least two different batches of oocytes.
(§4) Prism (version 5.04; GraphPad Software, La Jolla, CA, USA) was used for data analysis. All data are presented as mean ± standard error of the means (SEM).
(§5) Alternatively, the modulatory effect was expressed as the fold of potentiation, as shown in Eq 3.

α5β2γ2L GABAARs = target: T2, α5β2γ2L GABAARs (Homo sapiens, UniProt P18507+P31644+P47870); assay: Two-electrode voltage clamp, recombinant α5β2γ2L GABAARs in Xenopus oocytes; type: cell-based; details: Hill slope of GABA curve
T2 construct: expressed in transfected cells; host or cells: Xenopus laevis oocytes injected with mRNA (1:1:3)
Procedure: as §1
(§6) Two-electrode voltage clamp recordings were performed on oocytes 2–5 days post-injection at room temperature (20–25°C) using a GeneClamp 500B amplifier (ADInstruments, Sydney, NSW, Australia) or a Warner OC-725C Oocyte Clamp (Warner Instrument Corp, Hamden, CT, USA). […]
as §5

α4β2δ GABAARs = target: T3, α4β2δ GABAARs (Homo sapiens, UniProt O14764+P47870+P48169); assay: Two-electrode voltage clamp, recombinant α4β2δ GABAARs in Xenopus oocytes; type: cell-based; details: for nH ± SEM: Hill slope of GABA curve, α4β2δ
T3 construct: expressed in transfected cells; host or cells: Xenopus laevis oocytes injected with mRNA (5:1:5)
Procedure: as §1, §2, §3, §4, §5

α1M236Wβ2γ2L GABAARs = target: T4, α1M236Wβ2γ2L GABAARs (Homo sapiens, UniProt P14867+P18507+P47870, M263W); assay: Two-electrode voltage clamp, mutant α1M236Wβ2γ2L GABAARs in Xenopus oocytes; type: cell-based; details: for agonist effect, mutant vs wild-type: p > 0.05, n = 5
T4 construct: expressed in transfected cells; host or cells: Xenopus laevis oocytes injected with mRNA
From the text: (§7) Human complementary DNAs (cDNAs) of GABAAR subunits used in this study and their corresponding subcloned vectors include: α1, β1, β2 and γ2L in pCDM8; α2 and α3 in pCDNA3.1; α4 and δ in pCDNA1/Amp; α5 in pCDNA3; β3 in pGEMHE. […] Linearised plasmid DNAs were used as templates for the synthesis of messenger RNAs (mRNAs) using the mMessage mMachine T7 transcript kit from Ambion (Austin, TX, USA). Mutations were introduced to various GABAAR subunits of interest using the QuikChange II Site-Directed Mutagenesis Kit. For the α1M236W point mutation, forward primer 5′-[…]-3′ and reverse primer 5′-[…]-3′ were used. For the β2M286W point mutation, forward primer 5′-[…]-3′ and reverse primer 5′- […]-3′ were used. For the β3N265M point mutation, forward primer 5′- […]-3′ and reverse primer 5′-[…]-3′ were used.
as §1, §2, §3, §4, §5

α1β3γ2L GABAARs = target: T5, α1β3γ2L GABAARs (Homo sapiens, UniProt P14867+P18507+P28472); assay: Two-electrode voltage clamp, recombinant α1β3γ2L GABAARs in Xenopus oocytes; type: cell-based
T5 construct: expressed in transfected cells; host or cells: Xenopus laevis oocytes injected with mRNA (10:1:10)
Procedure: as §1, §6, §5

α1β1γ2L GABAARs = target: T6, α1β1γ2L GABAARs (Homo sapiens, UniProt P14867+P18505+P18507); assay: Two-electrode voltage clamp, recombinant α1β1γ2L GABAARs in Xenopus oocytes; type: cell-based; details: Hill slope of GABA curve
T6 construct: expressed in transfected cells; host or cells: Xenopus laevis oocytes injected with mRNA (10:1:10)
Procedure: as §1, §6, §5

α3β2γ2L GABAARs = target: T7, α3β2γ2L GABAARs (Homo sapiens, UniProt P18507+P34903+P47870); assay: Two-electrode voltage clamp, recombinant α3β2γ2L GABAARs in Xenopus oocytes; type: cell-based; details: Hill slope of GABA curve
T7 construct: expressed in transfected cells; host or cells: Xenopus laevis oocytes injected with mRNA (1:1:3)
Procedure: as §1, §6, §5

α1β3N265Mγ2L GABAARs = target: T8, α1β3N265Mγ2L GABAARs (Homo sapiens, UniProt P14867+P18507+P28472, N290M); assay: Two-electrode voltage clamp, mutant α1β3N265Mγ2L GABAARs in Xenopus oocytes; type: cell-based
T8 construct: expressed in transfected cells; host or cells: Xenopus laevis oocytes injected with mRNA (10:1:10)
From the text: as §7, §1, §2, §3, §4, §5

α1β2M286Wγ2L GABAARs = target: T9, α1β2M286Wγ2L GABAARs (Homo sapiens, UniProt P14867+P18507+P47870, M310W); assay: Two-electrode voltage clamp, mutant α1β2M286Wγ2L GABAARs in Xenopus oocytes; type: cell-based
T9 construct: expressed in transfected cells; host or cells: Xenopus laevis oocytes injected with mRNA
From the text: as §7, §1, §2, §3, §4, §5

β2γ2L GABAARs = target: T10, β2γ2L GABAARs (Homo sapiens, UniProt P18507+P47870); assay: Two-electrode voltage clamp, recombinant β2γ2L GABAARs in Xenopus oocytes; type: cell-based; details: Hill slope of GABA curve
T10 construct: expressed in transfected cells; host or cells: Xenopus laevis oocytes injected with mRNA
Procedure: as §1, §6, §5

α2β2γ2L GABAARs = α2β2γ2L GABAARs (Homo sapiens, UniProt P18507+P47869+P47870); details: Hill slope of GABA curve
Procedure: as §1, §6, §5

[1] = system: α1β2, β2γ2L, αxβ2γ2L (x = 1, 2, 3 or 5), α1βxγ2L (x = 1, 2 or 3) and α4β2δ GABAARs; assay: Kavain potentiation compared across GABAAR subtypes (two-electrode voltage clamp); type: cell-based, human; details: 300 μM kavain, GABA EC3-7 (EC30 at α4β2δ), Tukey's test
Procedure: as §1, §6
Alternatively, the modulatory effect was expressed as the fold of potentiation, as shown in Eq 3. […]

Molecule: NCCCC(=O)O [GABA, γ-Aminobutyric acid]
- nH ± SEM (α1β2γ2L GABAARs): 0.99 ± 0.062
- nH ± SEM (α1β2γ2L GABAARs; + 300 μM kavain): 0.75 ± 0.026
- nH ± SEM (α5β2γ2L GABAARs): 1.0 ± 0.078
- nH ± SEM (α4β2δ GABAARs): 0.70 ± 0.095
- nH ± SEM (α4β2δ GABAARs; + 300 μM kavain): 0.59 ± 0.11
- nH ± SEM (α1M236Wβ2γ2L GABAARs; Hill slope of GABA curve, mutant printed as α1M286Wβ2γ2L in table): 0.80 ± 0.053
- nH ± SEM (α1β3γ2L GABAARs; Hill slope of GABA curve, α1β3γ2L): 1.2 ± 0.070
- nH ± SEM (α1β1γ2L GABAARs): 1.1 ± 0.059
- nH ± SEM (α3β2γ2L GABAARs): 1.2 ± 0.054
- nH ± SEM (α1β3N265Mγ2L GABAARs; Hill slope of GABA curve, α1β3N265Mγ2L): 1.4 ± 0.083
- nH ± SEM (α1β2M286Wγ2L GABAARs; Hill slope of GABA curve, α1β2M286Wγ2L): 1.1 ± 0.036
- nH ± SEM (β2γ2L GABAARs): 0.63 ± 0.034
- nH ± SEM (α2β2γ2L GABAARs): 1.4 ± 0.041

Molecule: CN1C(=O)CN=C(c2ccccc2)c2cc(Cl)ccc21 [diazepam]
- enhancement of GABA current, normalised to 10 μM GABA responses (α1β2γ2L GABAARs): 260 ± 4.2%
- flumazenil sensitivity of diazepam enhancement (α1β2γ2L GABAARs): flumazenil-sensitive

Molecule: CCOC(=O)c1cncn1[C@H](C)c1ccccc1 [etomidate, Etomidate hydrochloride (HCl)]
- enhancement of GABA EC3 responses, % of maximal GABA responses (α1β2γ2L GABAARs): 53 ± 2.6% and 45 ± 3.1%
- modulatory effect on GABA EC3 (1 μM) responses, mutant vs wild-type (α1M236Wβ2γ2L GABAARs; 3 μM etomidate, p < 0.0001, n = 5): significantly attenuated
- agonist effect, mutant vs wild-type (α1M236Wβ2γ2L GABAARs; 30 μM etomidate): not significantly different from wild-type receptors
- modulation (3 μM) and activation (30 μM) of the point-mutated receptors (α1β3N265Mγ2L GABAARs; data not shown): did not modulate (at 3 μM) nor activate (at 30 μM)
- etomidate sensitivity (modulatory and agonist effects) (α1β2M286Wγ2L GABAARs; data not shown): abolished

Molecule: CCOC(=O)c1ncn2c1CN(C)C(=O)c1cc(F)ccc1-2 [flumazenil]
- effect of flumazenil alone on GABA responses (α1β2γ2L GABAARs; 10 μM GABA + 10 μM flumazenil): did not alter GABA responses

Molecule: CC(C)c1cccc(C(C)C)c1O [propofol]
- elicited current, % of the maximal propofol responses (α1β2γ2L GABAARs): 91 ± 1.5%
- enhancement of GABA EC3 responses, % of the maximal GABA responses (α1β2γ2L GABAARs): 45 ± 3.5% and 50 ± 4.8%
- modulatory effect on GABA EC3 (1 μM) responses, mutant vs wild-type (α1M236Wβ2γ2L GABAARs; 10 μM propofol, p < 0.01, n = 5): significantly attenuated
- agonist effect, mutant vs wild-type (α1M236Wβ2γ2L GABAARs; 100 μM propofol): not significantly different from wild-type receptors
- propofol activity at the point-mutated receptors (α1β3N265Mγ2L GABAARs): Pronounced attenuation
- receptor modulation in the presence of GABA EC3 (1 μM), mutant vs wild-type (α1β2M286Wγ2L GABAARs; 10 μM propofol, p < 0.001): significantly diminished
- direct activation, mutant vs wild-type (α1β2M286Wγ2L GABAARs; 100 μM propofol, p > 0.05): unaffected

Molecule: DL-kavain
- GABA-enhancing action of kavain in the presence of flumazenil (α1β2γ2L GABAARs; 10 μM GABA + 300 μM kavain + 10 μM flumazenil): unaffected in the presence of flumazenil
- enhancement of GABA current, normalised to 10 μM GABA responses (α1β2γ2L GABAARs; 10 μM GABA + 300 μM kavain, n = 5): 260 ± 11%
- intrinsic agonist activity, currents relative to the 10 mM GABA responses (α1β2γ2L GABAARs; 300 μM kavain alone, n = 5): < 1%
- enhancement of GABA-elicited responses (α1β2γ2L GABAARs; 300 μM kavain, GABA EC3 (10 μM), n = 6): 170 ± 23%
- enhancement depending on GABA concentration (α1β2γ2L GABAARs; 300 μM kavain, GABA concentration-response curve): modest enhancement at GABA concentrations below EC45
- current elicited by kavain alone, % of the GABA EC3 responses (α1β2γ2L GABAARs; 300 μM kavain, wild-type, n = 4): 15 ± 3.6%
- potentiation by co-application, % of GABA EC3 responses (α1β2γ2L GABAARs; GABA EC3 + 300 μM kavain, n = 4, kavain-elicited current not deducted): 250 ± 7.8%
- increase of the maximal response evoked by GABA (α4β2δ GABAARs; 300 μM kavain, p < 0.0001): two fold
- current elicited by kavain alone, % of the GABA EC3 responses (α1M236Wβ2γ2L GABAARs; 300 μM kavain, n = 6): approximately 63 ± 5.2%
- potentiation by co-application, % of GABA EC3 responses (α1M236Wβ2γ2L GABAARs; GABA EC3 + 300 μM kavain, n = 6, kavain-elicited current not deducted): 220 ± 11%
- kavain modulation of GABA EC3 responses (α1β3γ2L GABAARs; GABA EC3 + 300 μM kavain): 260 ± 18%
- current elicited by kavain alone, % of GABA EC3 responses (α1β3N265Mγ2L GABAARs; 300 μM kavain): 3.3 ± 1.0%
- kavain modulation of GABA EC3 responses (α1β3N265Mγ2L GABAARs; GABA EC3 + 300 μM kavain, p < 0.001 vs α1β3γ2L): 110 ± 14%
- current elicited by kavain alone, % of the GABA EC3 responses (α1β2M286Wγ2L GABAARs; 300 μM kavain, p < 0.0001 vs wild-type): 96 ± 5.8%
- modulatory effect on GABA EC3-elicited responses, % of GABA EC3 (α1β2M286Wγ2L GABAARs; GABA EC3 + 300 μM kavain, p > 0.05 vs α1β2γ2L): 270 ± 8.7%
- subtype selectivity of potentiation [1]: no significant subtype selectivity
